# Reference: US11622966B2 (A2A Pharmaceuticals, Inc., priority 2018, dated 2023)
# Entries after “also recorded” stand apart in the source; their conditions may differ.
# Key:
# [1] = Kinetic solubility in sodium phosphate buffer; assay type: physicochemical; details: sodium phosphate buffer pH 7.4, 25° C., 2 h
# [2] = tested on: NCI-60 human cancer cell line panel; experiment: NCI-60 cancer cell line panel five-dose screening (SRB); assay type: cell-based; details: read-out: GI50 (50% growth inhibition), NCI-60 five-dose screen, ~90% / almost all cell lines
# Method: Detailed screening methodology can be accessed from the National Cancer Institute webpage. Briefly, 24 h after cell seeding into 96-well plates, they were treated with 5-log M concentration range of the compound for 2 days. Cytotoxicity was assessed using sulphorhodamine B (SRB) assay.
# [3] = biological target: T1, Purified TACC3 recombinant protein (Homo sapiens, UniProt Q9Y6A5); experiment: Isothermal titration calorimetry (ITC); assay type: binding; details: 25° C.
# T1 construct: purchased Origene TP310754
# Method: Titrations were carried out using Microcal 200 equipment (GE Healthcare, Austria) at 25° C. For each titration, 10 injections were made with 6 min spacing. The reference power was set at 2 μcal/sec, and the sample cell was continuously stirred at 500 rpm. In order to assess the binding efficiency between drug and protein, background data obtained by protein injected into buffer alone was subtracted from the experimental isotherms. The data was analyzed using Origin 7 Software provided along with the ITC200, and binding parameters such as association constant (Ka), number of binding sites (N) and enthalpy (ΔH) were calculated.
# [4] = tested on: JIMT-1 xenografts; experiment: Breast cancer xenograft experiments (JIMT-1 in mammary fat pad); assay type: in vivo, female athymic nude mice
# Method: Six-to-eight-week-old female athymic nude mice were housed with a temperature-controlled and 12-hour light/12-hour dark cycle environment. This study was carried out in accordance with Institutional Animal Care and Use Committee of Bilkent University and performed according to the institution's guidelines and animal research principles. For in vivo tumor growth, 4×10^6 JIMT-1 cells were prepared in 150 μl of 1:1 DMEM and Matrigel (Corning, N.Y., USA), v/v) and injected into the mammary fat pads (MFP) of female nude mice. Mouse weight and tumor volume were measure daily using calipers. Tumor volumes were calculated as length×width×0.5. Once the tumor volume had reached about 100 mm^3, xenografts were randomized into groups.
# [5] = tested on: JIMT-1 cells; experiment: Colony formation assay; assay type: cell-based, human; details: 12 days, versus other two inhibitors at the same doses (FIG. 6B)
# Method: For monolayer culture, single-cell suspensions of JIMT-1 cells (3×10^3 cells/well) were plated in a 12-well plate. […] For both experimental setups, the media were refreshed every 4 days, and cells were incubated for 12 days. Cells were then fixed with 2% paraformaldehyde for 15 min and stained with 1% crystal violet (Merck, Darmstadt, Germany) for 15 min at RT. Surviving colonies (composed of at least 50 cells) were counted with ImageJ software (NIH).
# [6] = biological target: T2, TACC3 (Homo sapiens, UniProt Q9Y6A5); experiment: Target engagement assay (drug-target stabilization with increased temperature); assay type: binding; details: JIMT-1 cells
# T2 construct: endogenous in cells; host or cells: JIMT-1
# [7] = tested on: JIMT-1 breast cancer cell lines; experiment: Cell viability assay (Cell Titer Glo), JIMT-1; assay type: cell-based; details: Homo sapiens, JIMT-1 breast cancer cells, 72 hours, read-out: IC50, proliferation / cell viability of JIMT-1
# Method: As mentioned before, none of the available TACC3 inhibitors, such as KHS101 and SPL-B has yet advanced to the clinical studies. […] For this purpose, it was performed in-house screening of a series of small molecules by testing their anti-proliferative effects in breast cancer cells in which TACC3 is aberrantly expressed (Ma et al., 2003; Song et al., 2018). Specifically, JIMT-1 cell line was chosen for screening the effect of compounds in cell viability due to its high TACC3 protein level compared to other tested breast cancer cell lines as well as its in vivo tumorigenicity (Saatci et al., 2018; Tanner et al., 2004) (will be discussed in FIGS. 8 and 9-10, respectively).
# (§1) KHS101 and SPL-B were dissolved in 100% DMSO to yield a stock concentration of 50 mM. Newly synthesized molecules were dissolved in 100% DMSO to yield a stock concentration of 10 mM. For cell viability assay, JIMT-1 (3×10^3 cells/well), BT-474 T-DM1R (6×10^3 cells/well), MDA-MB-436 (4×10^3 cells/well), MDA-MB-157 (3×10^3 cells/well) and MCF-12A (5×10^3 cells/well) cells were seeded, and 24 hours after cell seeding inhibitor treatments were performed at different concentrations. Cell viability was measured 72 hours after treatment with Cell Titer Glo assay as recommended by the manufacturer.
# [8] = Plasma protein binding by equilibrium dialysis; assay type: in vitro ADME; details: human, 37° C.
# [9] = tested on: JIMT-1 cells; experiment: Western blot of mitotic arrest, DNA damage and apoptosis markers; assay type: cell-based, human; details: 24 hours, Western blot (FIG. 6C)
# [10] = Stability in human liver microsomes; assay type: in vitro ADME; details: HLM
# [11] = tested on: normal breast epithelial cells, MCF-12A; experiment: Cell viability assay, normal breast cell line; assay type: cell-based
# Method: Next, the specificity of BO-264 towards cancer cell lines over normal cells were tested.
# as §1
# [12] = tested on: JIMT-1, MDA-MB-436, MDA-MB-157 and BT-474 T-DM1R cell lines; experiment: Cell viability assay (Cell Titer Glo), breast cancer cell line panel; assay type: cell-based, human; details: all cell lines tested, 72 hours, Cell Titer Glo (FIG. 6A)
# [13] = Stability in mouse liver microsomes; assay type: in vitro ADME; details: MLM
# [14] = tested on: glioblastoma (GBM) xenografts; details: Polson et al., 2018; cited from earlier work
# [15] = 5 mg/kg (oral) every two days for 30 days (FIG. 9)
structure (smiles),measurement,setting,value
"COc1ccc(-c2cc(Nc3ccnc(N4CCOCC4)n3)on2)cc1 [BO-264, 3-(4-methoxyphenyl)-N-(2-morpholinopyrimidin-4-yl)isoxazol-5-amine]",solubility,[1],low solubility
same,GI50,[2],< 1000 nM
same,N (number of binding sites),[3],0.704
same,ΔH,[3],4.929e+07 cal/mol
same,ΔS,[3],1.65E5 cal/mol/deg
same,K (association constant),[3]; titration of TACC3 into BO-264,6.23E8
same,body weight of mice,[4]; 2 mg/kg (oral or i.v) or 5 mg/kg (oral) every two days for 30 days (FIG. 10B),did not have any negative effect
same,tumor growth rate compared with control group,[4]; 2 mg/kg i.v every two days for 30 days (FIG. 10A),decreased
same,tumor growth rate compared with control group,[4]; 2 mg/kg oral every two days for 30 days (FIG. 10A),decreased
same,body weight of mice,[4]; [15],no negative effects
same,tumor growth compared to SPL-B,[4]; [15],significant reduction of tumor growth
same,tumor growth rate compared with control group,[4]; 5 mg/kg (oral) every two days for 30 days (FIG. 10A),the most significant effect on tumor growth
same,tumor growth compared to vehicle-treated mice,[4]; 25 mg/kg oral for 23 days (FIG. 11A),very significant reduction of tumor growth
same,tumor weights compared to vehicle group,[4]; 25 mg/kg oral for 23 days (FIG. 11B),significantly lower
same,mice weight / tolerability,[4]; 25 mg/kg oral for 23 days (FIG. 11C),well tolerated
same,average colony number of JIMT-1 cells,[5],significantly lower
same,TACC3-BO-264 binding,[6],validated
same,IC50,[7],232 nM
same,fraction unbound,[8],0.0113
same,"induction of mitotic arrest, DNA damage and apoptosis markers",[9],at lower doses compared to other two TACC3 inhibitors; also recorded: in a dose-dependent manner
same,stability in human liver microsomes,[10],low stability
same,inhibition at 10 µM,"[11]; Homo sapiens, MCF-12A, 72 h, read-out: growth inhibition of MCF-12A cells",< 50%
same,effect on normal breast cell line,[11]; normal breast cell line,minor effects
same,IC50 values compared with KHS101 and SPL-B,[12],significantly lower IC50 values than the two available TACC3 inhibitors
same,stability in mouse liver microsomes,[13],low stability
"CC(C)CNc1ccnc(NCc2csc(-c3ccccc3)n2)n1 [KHS101, reference compound]",tumor growth of glioblastoma (GBM) xenografts,[14],suppressed
same,"induction of mitotic arrest, DNA damage and apoptosis markers",[9],at considerably higher doses; also recorded: only observed at very high doses
